A word on the Ki: it is the dissociation constant of the complex between target and ligand, obtained from inhibition or displacement.

The assay addresses human FLAP (Homo sapiens (Human), UniProt P20292). Nature of the assay: FLAP binding assay (HTRF format). The note with it: human FLAP wild type membranes, HTRF format; Table 6 (additional runs). On the procedure:
The ability of the compounds of the present invention to treat a FLAP-mediated disease and/or disorder, or associated symptoms or complications thereof, was determined using the following procedures. Binding assay data represent the average value obtained from two different assay plates, with samples run in duplicate on each plate. Human whole blood assay data represent a single replicate on an assay plate using whole blood from at least one healthy donor.
Data are expressed as a HTRF ratio.
Background: In TR-FRET formats the signal depends on donor and acceptor labels being close together.

Sequence of human FLAP (P20292 whole entry): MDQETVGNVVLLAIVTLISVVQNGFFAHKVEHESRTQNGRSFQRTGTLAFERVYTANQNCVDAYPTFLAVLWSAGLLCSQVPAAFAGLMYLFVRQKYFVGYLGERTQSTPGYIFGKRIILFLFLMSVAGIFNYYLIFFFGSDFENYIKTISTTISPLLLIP

As to `Nc1cnc(-c2ccc(C3CCC3)c(OCc3ccccn3)c2F)cn1` [Compound 24, 5-[4-Cyclobutyl-2-fluoro-3-(pyridin-2-ylmethoxy)phenyl]pyrazin-2-amine], the Ki turned out to be 0.0162 µM.

`CNS(=O)(=O)c1ccc(COc2c(C3CCC3)ccc(-c3cnc(N)cn3)c2F)cc1` [Compound 27, 4-{[3-(5-Aminopyrazin-2-yl)-6-cyclobutyl-2-fluorophenoxy]methyl}-N-methylbenzenesulfonamide] returned an inhibition constant Ki of 0.0064 µM. Against the preceding compound, the Ki is about 2.5-fold lower.

`Nc1cnc(-c2ccc(C3CCC3)c(OCc3ccc(F)cc3)c2F)cn1` [Compound 28, 5-{4-Cyclobutyl-2-fluoro-3-[(4-fluorobenzyl)oxy]phenyl}pyrazin-2-amine] yielded a Ki of 0.0662 µM.

On to `Nc1cnc(-c2ccc(C3CCC3)c(OCc3cccc(F)c3)c2F)cn1` [Compound 29, 5-{4-Cyclobutyl-2-fluoro-3-[(3-fluorobenzyl)oxy]phenyl}pyrazin-2-amine], for which affinity was put at a Ki of 0.0246 µM. Against the preceding compound, the Ki is about 2.7-fold lower.

`Nc1cnc(-c2ccc(C3CCC3)c(OCc3ccccc3F)c2F)cn1` [Compound 30, 5-{4-Cyclobutyl-2-fluoro-3-[(2-fluorobenzyl)oxy]phenyl}pyrazin-2-amine] came in with a Ki of 0.0335 µM.

With `Nc1cnc(-c2ccc(C3CCC3)c(OCc3ccc(F)c(F)c3)c2F)cn1` [Compound 33, 5-{4-Cyclobutyl-3-[(3,4-difluorobenzyl)oxy]-2-fluorophenyl}pyrazin-2-amine], the Ki was around 0.25 µM.

For `Nc1cnc(-c2ccc(C3CCC3)c(OCc3cc(Cl)ccc3Cl)c2F)cn1` [Compound 38, 5-{4-Cyclobutyl-3-[(2,5-dichlorobenzyl)oxy]-2-fluorophenyl}pyrazin-2-amine], the Ki is around 0.25 µM.

As to `Nc1cnc(-c2ccc(C3CCC3)c(OCc3ccccc3C(=O)O)c2F)cn1` [Example 46, 2-{[3-(5-Aminopyrazin-2-yl)-6-cyclobutyl-2-fluorophenoxy]methyl}benzoic acid], the Ki amounted to 0.0069 µM.

`CC(C)(C)OC(=O)COc1c(C2CCC2)ccc(-c2cnc(N)cn2)c1F` [Example 49, tert-Butyl [3-(5-aminopyrazin-2-yl)-6-cyclobutyl-2-fluorophenoxy]acetate] yielded a Ki of around 0.134 µM.

Take `Nc1cnc(-c2ccc(C3CCC3)c(OCC(=O)O)c2F)cn1` [Example 50, [3-(5-Aminopyrazin-2-yl)-6-cyclobutyl-2-fluorophenoxy]acetic acid]: affinity was put at a Ki of 0.787 µM.

For `CS(=O)(=O)N1CCC(COc2c(C3CCC3)ccc(-c3cnc(N)cn3)c2F)CC1` [Example 68, 5-(4-Cyclobutyl-2-fluoro-3-{[1-(methylsulfonyl)piperidin-4-yl]methoxy}phenyl)pyrazin-2-amine], the Ki is 0.136 µM.

`Cc1ccnc(Oc2c(C3CCC3)ccc(-c3cnc(N)cn3)c2F)n1` [Example 69, 5-{4-Cyclobutyl-2-fluoro-3-[(4-methylpyrimidin-2-yl)oxy]phenyl}pyrazin-2-amine]: the affinity, expressed as Ki, was 0.014 µM.

`Cc1nc(COc2c(C3CCC3)ccc(-c3cnc(N)cn3)c2F)no1` [Example 70, 5-{4-Cyclobutyl-2-fluoro-3-[(5-methyl-1,2,4-oxadiazol-3-yl)methoxy]phenyl}pyrazin-2-amine] returned a Ki of 0.0342 µM.

In the case of `Nc1cnc(-c2ccc(C3CCC3)c(OCC3CCCCC3)c2F)cn1` [Example 71, 5-[4-Cyclobutyl-3-(cyclohexylmethoxy)-2-fluorophenyl]pyrazin-2-amine], the Ki came out at 0.421 µM.

In turn, `Nc1cnc(-c2ccc(C3CCC3)c(OCC3CC3)c2F)cn1` [Example 72, 5-[4-Cyclobutyl-3-(cyclopropylmethoxy)-2-fluorophenyl]pyrazin-2-amine] gave a Ki of 0.0237 µM. Against the preceding compound, the Ki is about 18-fold lower.

`CCOC(=O)c1ccc(COc2c(C3CCC3)ccc(-c3cnc(N)cn3)c2F)o1` [Example 73, Ethyl 5-{[3-(5-aminopyrazin-2-yl)-6-cyclobutyl-2-fluorophenoxy]methyl}furan-2-carboxylate] yielded a Ki of 0.275 µM. This Ki lies about 12-fold higher than the previous one.

Take `CC(C)(C)OC(=O)N1CCC(COc2c(C3CCC3)ccc(-c3cnc(N)cn3)c2F)CC1` [Example 74, tert-Butyl 4-{[3-(5-aminopyrazin-2-yl)-6-cyclobutyl-2-fluorophenoxy]methyl}piperidine-1-carboxylate]: the Ki is 0.175 µM. Compared with the last compound, the Ki is about 1.6-fold lower.

The compound `Nc1cnc(-c2ccc(C3CCC3)c(OCc3cc(S(F)(F)(F)(F)F)ccc3F)c2F)cn1` [Example 77, 5-(4-Cyclobutyl-2-fluoro-3-{[2-fluoro-5-(pentafluoro-lambda˜6˜-sulfanyl)benzyl]oxy}phenyl)pyrazin-2-amine] yielded a Ki of around 0.2 µM.

`Nc1cnc(-c2ccc(C3CCC3)c(OCC3CCC3)c2F)cn1` [Example 82, 5-[4-Cyclobutyl-3-(cyclobutylmethoxy)-2-fluorophenyl]pyrazin-2-amine] had a Ki of 0.208 µM. This counts as sub-micromolar.

With `Nc1cnc(-c2ccc(C3CCC3)c(OCc3ccccc3)c2F)cn1` [Example 83, 5-[3-(Benzyloxy)-4-cyclobutyl-2-fluorophenyl]-pyrazin-2-amine], the affinity, expressed as Ki, was 0.0445 µM.

For the compound `Nc1cnc(-c2ccc(C3CCC3)c(OCc3ccc(C(=O)O)o3)c2F)cn1` [Example 85, 5-{[3-(5-Aminopyrazin-2-yl)-6-cyclobutyl-2-fluorophenoxy]methyl}furan-2-carboxylic acid], affinity was put at a Ki of 0.0281 µM.

On to `Cc1cc(N)nc(Oc2c(C3CCC3)ccc(-c3cnc(N)cn3)c2F)n1` [Example 86, 2-[3-(5-Aminopyrazin-2-yl)-6-cyclobutyl-2-fluorophenoxy]-6-methylpyrimidin-4-amine], for which the Ki is 0.0062 µM.

Consider `Nc1cnc(-c2ccc(C3CCC3)c(Oc3nccc(-c4ccccc4)n3)c2F)cn1` [Example 87, 5-{4-Cyclobutyl-2-fluoro-3-[(4-phenylpyrimidin-2-yl)oxy]phenyl}pyrazin-2-amine], for which the affinity, expressed as Ki, was 0.0021 µM.

With `CSc1ccnc(Oc2c(C3CCC3)ccc(-c3cnc(N)cn3)c2F)n1` [Example 88, 5-(4-Cyclobutyl-2-fluoro-3-{[4-(methylsulfanyl)pyrimidin-2-yl]oxy}phenyl)pyrazin-2-amine], the affinity, expressed as Ki, was 0.0035 µM. Against the preceding compound, the Ki is about 1.7-fold higher.

As for `Cc1cc(C)nc(Oc2c(C3CCC3)ccc(-c3cnc(N)cn3)c2F)n1` [Example 89, 5-{4-Cyclobutyl-3-[(4,6-dimethylpyrimidin-2-yl)oxy]-2-fluorophenyl}pyrazin-2-amine], the Ki came out at 0.0053 µM. Compared with the last compound, the Ki is about 1.5-fold higher.

`CC(C)c1ccnc(Oc2c(C3CCC3)ccc(-c3cnc(N)cn3)c2F)n1` [Example 90, 5-(4-Cyclobutyl-2-fluoro-3-{[4-(1-methylethyl)pyrimidin-2-yl]oxy}phenyl)pyrazin-2-amine] showed a Ki of 0.0538 µM.

For `Nc1cnc(-c2ccc(C3CCC3)c(Oc3nccc(-c4cccs4)n3)c2F)cn1` [Example 91, 5-{4-Cyclobutyl-2-fluoro-3-[(4-thiophen-2-ylpyrimidin-2-yl)oxy]phenyl}pyrazin-2-amine], the affinity, expressed as Ki, was 0.0008 µM. This Ki is about 67-fold lower than that of the compound before.

`COc1ccnc(Oc2c(C3CCC3)ccc(-c3cnc(N)cn3)c2F)n1` [Example 93, 5-{4-Cyclobutyl-2-fluoro-3-[(4-methoxypyrimidin-2-yl)oxy]phenyl}pyrazin-2-amine] yielded an inhibition constant (Ki) of 0.0052 µM.

`COc1cnc(Oc2c(C3CCC3)ccc(-c3cnc(N)cn3)c2F)nc1` [Example 94, 5-{4-Cyclobutyl-2-fluoro-3-[(5-methoxypyrimidin-2-yl)oxy]phenyl}pyrazin-2-amine] showed a Ki of 0.0445 µM.

(Values after patent publication US9732093B2, “FLAP modulators” (JANSSEN PHARMACEUTICA NV, priority 2013, dated 2017).)
